Data: ChEMBL document CHEMBL1201862, “PubChem BioAssay data set” (2004)
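Each compound was tested at five concentrations against cells in 96-well plates for 48 hours. Abbreviation: GI50, concentration required for 50% inhibition of growth.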 Activity calls are given as the source filed them. Rule as the data show it: active = GI50 up to about 1.1 µM and inactive = higher.

Key:
Assay in all cases: growth of human tumour cells (NCI), 48 h
[1] = test system: 786-0
[2] = test system: A498
[3] = test system: A549
[4] = test system: ACHN
[5] = test system: CAKI-1
[6] = test system: CCRF-CEM
[7] = test system: COLO 205
[8] = test system: DLD-1
[9] = test system: DMS-114
[10] = test system: DMS-273
[11] = test system: EKVX
[12] = test system: HCT-116
[13] = test system: HCT-15
[14] = test system: HL-60
[15] = test system: HOP-18
[16] = test system: HOP-62
[17] = test system: HOP-92
[18] = test system: HT-29
[19] = test system: IGROV-1
[20] = test system: K562
[21] = test system: KM-20L2
[22] = test system: KM12
[23] = test system: LXFL 529
[24] = test system: M14
[25] = test system: M19-MEL
[26] = test system: MOLT-4
[27] = test system: Malme-3M
[28] = test system: NCI-H226
[29] = test system: NCI-H23
[30] = test system: NCI-H460
[31] = test system: NCI-H522
[32] = test system: OVCAR-3
[33] = test system: OVCAR-4
[34] = test system: OVCAR-5
[35] = test system: OVCAR-8
[36] = test system: RPMI-8226
[37] = test system: SF-268
[38] = test system: SF-295
[39] = test system: SF-539
[40] = test system: SK-MEL-28
[41] = test system: SK-MEL-2
[42] = test system: SK-MEL-5
[43] = test system: SN12C
[44] = test system: SNB-19
[45] = test system: SNB-75
[46] = test system: SNB-78
[47] = test system: SR
[48] = test system: SW-620
[49] = test system: TK-10
[50] = test system: U-251
[51] = test system: UACC-257
[52] = test system: UACC-62
[53] = test system: UO-31
[54] = test system: XF498
[55] = test system: HCC 2998
[56] = test system: LOX IMVI
[57] = test system: RXF 393
[58] = test system: SK-OV-3

## CCCC1=C(CC)C(C(=O)Nc2c(C)cccc2C)=NC(S)N1 (centres undefined)
[1]
  GI50: > 100 µM (inactive)
[2]
  GI50: > 100 µM (inactive)
[3]
  GI50: > 100 µM (inactive)
[4]
  GI50: > 100 µM (inactive)
[5]
  GI50: > 100 µM (inactive)
[6]
  GI50: > 100 µM (inactive)
[7]
  GI50: > 100 µM (inactive)
[8]
  GI50: > 100 µM (inactive)
[9]
  GI50: > 100 µM (inactive)
[10]
  GI50: > 100 µM (inactive)
[11]
  GI50: > 100 µM (inactive)
[12]
  GI50: > 100 µM (inactive)
[13]
  GI50: > 100 µM
[14]
  GI50: > 100 µM (inactive)
[15]
  GI50: > 100 µM (inactive)
[16]
  GI50: > 100 µM (inactive)
[17]
  GI50: > 100 µM (inactive)
[18]
  GI50: > 100 µM (inactive)
[19]
  GI50: > 100 µM (inactive)
[20]
  GI50: > 100 µM (inactive)
[21]
  GI50: > 100 µM (inactive)
[22]
  GI50: > 100 µM (inactive)
[23]
  GI50: > 100 µM (inactive)
[24]
  GI50: > 100 µM (inactive)
[25]
  GI50: > 100 µM (inactive)
[26]
  GI50: > 100 µM (inactive)
[27]
  GI50: > 100 µM (inactive)
[28]
  GI50: > 100 µM (inactive)
[29]
  GI50: > 100 µM (inactive)
[30]
  GI50: > 100 µM (inactive)
[31]
  GI50: > 100 µM (inactive)
[32]
  GI50: > 100 µM (inactive)
[33]
  GI50: > 100 µM (inactive)
[34]
  GI50: > 100 µM (inactive)
[35]
  GI50: > 100 µM (inactive)
[36]
  GI50: > 100 µM (inactive)
[37]
  GI50: > 100 µM (inactive)
[38]
  GI50: > 100 µM (inactive)
[39]
  GI50: > 100 µM (inactive)
[40]
  GI50: > 100 µM (inactive)
[41]
  GI50: > 100 µM (inactive)
[42]
  GI50: > 100 µM (inactive)
[43]
  GI50: > 100 µM (inactive)
[44]
  GI50: > 100 µM (inactive)
[45]
  GI50: 59 µM (inactive)
[46]
  GI50: > 100 µM (inactive)
[47]
  GI50: > 100 µM (inactive)
[48]
  GI50: > 100 µM (inactive)
[49]
  GI50: > 100 µM (inactive)
[50]
  GI50: > 100 µM (inactive)
[51]
  GI50: > 100 µM (inactive)
[52]
  GI50: > 100 µM (inactive)
[53]
  GI50: > 100 µM (inactive)
[54]
  GI50: > 100 µM (inactive)

## COC(=O)C1=C(c2ccc(OC)c(OC)c2)OC(c2ccc(OC)c(OC)c2)C1 (centres undefined)
[1]
  GI50: 31.6 µM (inactive)
[2]
  GI50: 12.7 µM (inactive)
[3]
  GI50: 42.3 µM (inactive)
[4]
  GI50: 25.4 µM (inactive)
[6]
  GI50: 31.4 µM (inactive)
[7]
  GI50: 17.1 µM (inactive)
[8]
  GI50: 5.93 µM (inactive)
[9]
  GI50: 23.2 µM (inactive)
[10]
  GI50: 54.7 µM (inactive)
[11]
  GI50: 39.7 µM (inactive)
[55]
  GI50: 66.1 µM (inactive)
[12]
  GI50: 27.3 µM (inactive)
[13]
  GI50: 25.2 µM
[14]
  GI50: 9.82 µM (inactive)
[15]
  GI50: 33.5 µM (inactive)
[16]
  GI50: 59.4 µM (inactive)
[17]
  GI50: 13.8 µM (inactive)
[18]
  GI50: 22.3 µM (inactive)
[19]
  GI50: 25.1 µM (inactive)
[20]
  GI50: 32.1 µM (inactive)
[21]
  GI50: 39.4 µM (inactive)
[22]
  GI50: 32.7 µM (inactive)
[56]
  GI50: 19.5 µM (inactive)
[23]
  GI50: 16.2 µM (inactive)
[24]
  GI50: 38.7 µM (inactive)
[25]
  GI50: 42.6 µM (inactive)
[26]
  GI50: 8.17 µM (inactive)
[27]
  GI50: 30 µM (inactive)
[28]
  GI50: 37 µM (inactive)
[29]
  GI50: 48.5 µM (inactive)
[30]
  GI50: 41 µM (inactive)
[32]
  GI50: 33.9 µM (inactive)
[33]
  GI50: 27.9 µM (inactive)
[34]
  GI50: 32.6 µM (inactive)
[35]
  GI50: 29.5 µM (inactive)
[36]
  GI50: 37.6 µM (inactive)
[57]
  GI50: 25.6 µM (inactive)
[37]
  GI50: 35.6 µM (inactive)
[38]
  GI50: 27.6 µM (inactive)
[39]
  GI50: 33.4 µM (inactive)
[40]
  GI50: 45.1 µM (inactive)
[41]
  GI50: 57.9 µM (inactive)
[42]
  GI50: 15.6 µM (inactive)
[58]
  GI50: 32.6 µM (inactive)
[43]
  GI50: 27.9 µM (inactive)
[45]
  GI50: 41.4 µM (inactive)
[46]
  GI50: 28.7 µM (inactive)
[47]
  GI50: 18.5 µM (inactive)
[48]
  GI50: 35.3 µM (inactive)
[49]
  GI50: 43.2 µM (inactive)
[50]
  GI50: 36.1 µM (inactive)
[51]
  GI50: 36.3 µM (inactive)
[52]
  GI50: 35.6 µM (inactive)
[53]
  GI50: 28.8 µM (inactive)
[54]
  GI50: 23.2 µM (inactive)

## COc1ccc(C2N3CCCCC3[C@@H]3c4[nH]c5ccccc5c4CCN23)c(OC)c1 (some centres undefined)
[1]
  GI50: 33.7 µM (inactive)
[2]
  GI50: 15.5 µM (inactive)
[3]
  GI50: 40.8 µM (inactive)
[4]
  GI50: 23.6 µM (inactive)
[5]
  GI50: 52 µM (inactive)
[6]
  GI50: 26.9 µM (inactive)
[7]
  GI50: 18.2 µM (inactive)
[8]
  GI50: 33.4 µM (inactive)
[9]
  GI50: 18.7 µM (inactive)
[10]
  GI50: 16.4 µM (inactive)
[11]
  GI50: > 100 µM (inactive)
[12]
  GI50: 21.1 µM (inactive)
[13]
  GI50: 28 µM
[14]
  GI50: 18.2 µM (inactive)
[15]
  GI50: > 100 µM (inactive)
[16]
  GI50: 84.7 µM (inactive)
[17]
  GI50: 49.9 µM (inactive)
[18]
  GI50: 15.8 µM (inactive)
[19]
  GI50: 45.1 µM (inactive)
[20]
  GI50: 26.7 µM (inactive)
[21]
  GI50: 18.8 µM (inactive)
[23]
  GI50: 21.8 µM (inactive)
[24]
  GI50: 16.8 µM (inactive)
[25]
  GI50: 20 µM (inactive)
[26]
  GI50: 21 µM (inactive)
[29]
  GI50: 22.6 µM (inactive)
[30]
  GI50: 22 µM (inactive)
[32]
  GI50: 24.6 µM (inactive)
[33]
  GI50: 25.5 µM (inactive)
[34]
  GI50: 22.2 µM (inactive)
[35]
  GI50: 33.3 µM (inactive)
[36]
  GI50: 15.8 µM (inactive)
[57]
  GI50: 14.1 µM (inactive)
[37]
  GI50: 21.1 µM (inactive)
[38]
  GI50: 42.3 µM (inactive)
[39]
  GI50: 18.5 µM (inactive)
[40]
  GI50: 19.1 µM (inactive)
[41]
  GI50: 14.6 µM (inactive)
[42]
  GI50: 16.3 µM (inactive)
[58]
  GI50: 30.4 µM (inactive)
[43]
  GI50: 18 µM (inactive)
[44]
  GI50: 39.4 µM (inactive)
[46]
  GI50: 18.9 µM (inactive)
[48]
  GI50: 33.7 µM (inactive)
[49]
  GI50: 25.2 µM (inactive)
[50]
  GI50: 28.4 µM (inactive)
[51]
  GI50: 26.2 µM (inactive)
[52]
  GI50: 16.3 µM (inactive)
[53]
  GI50: 23.5 µM (inactive)
[54]
  GI50: 14.1 µM (inactive)
